# Laboratory results taken from article PMC10052868 (European journal of medicinal chemistry, 2022).
# Molecular target: PfPK6 (Plasmodium falciparum, UniProt Q8IDW1)
# Assay: KinaseSeeker split-luciferase assay on PfPK6
# Type: binding, P. falciparum
# Conditions: for fold drop in potency against PfPK6 relative to Ki8751 / fold increase in potency against PfPK6 compared to Ki8751: compared to Ki8751; for activity against PfPK6 in words: KinaseSeeker, 1 μM; for remaining activity at 1 µM: read-out: PfPK6 activity remaining at 1 μM (%)
smiles,measurement,setting,value
"COc1ccc2c(Oc3ccc(NC(=O)Nc4ccc(F)cc4F)c(F)c3)ccnc2c1 [Compound 1, 1-(2,4-difluorophenyl)-3-(2-fluoro-4-((7-methoxyquinolin-4-yl)oxy)phenyl)urea]",fold drop in potency against PfPK6 relative to Ki8751,,3 fold
"COc1ccc2nccc(Oc3ccc(NC(=O)Nc4ccc(F)cc4F)c(F)c3)c2c1 [Compound 2, 1-(2,4-difluorophenyl)-3-(2-fluoro-4-((6-methoxyquinolin-4-yl)oxy)phenyl)urea]",fold drop in potency against PfPK6 relative to Ki8751,,15 fold
"O=C(Nc1ccc(F)cc1F)Nc1ccc(Oc2ccnc3ccccc23)cc1F [Compound 3, 1-(2,4-difluorophenyl)-3-(2-fluoro-4-(quinolin-4-yloxy)phenyl)urea]",fold drop in potency against PfPK6 relative to Ki8751,,34 fold
"O=C(Nc1ccc(O)cc1F)Nc1ccc(F)cc1F [Compound 5, 1-(2,4-difluorophenyl)-3-(2-fluoro-4-hydroxyphenyl)urea]",activity against PfPK6 in words,,completely inactive
same,remaining activity at 1 µM,,100%
"COc1ccc(NC(=O)Nc2ccc(F)cc2F)c(F)c1 [Compound 6, 1-(2,4-difluorophenyl)-3-(2-fluoro-4-methoxyphenyl)urea]",activity against PfPK6 in words,,completely inactive
same,remaining activity at 1 µM,,100%
"COc1cc2nccc(Oc3ccc(NC(=O)Nc4ccccc4F)c(F)c3)c2cc1OC [Compound 7, 1-(4-((6,7-dimethoxyquinolin-4-yl)oxy)-2-fluorophenyl)-3-(2-fluorophenyl)urea]",fold increase in potency against PfPK6 compared to Ki8751,,≥ 3 fold
"COc1cc2nccc(Oc3ccc(NC(=O)Nc4ccc(F)cc4)c(F)c3)c2cc1OC [Compound 8, 1-(4-((6,7-dimethoxyquinolin-4-yl)oxy)-2-fluorophenyl)-3-(4-fluorophenyl)urea]",fold increase in potency against PfPK6 compared to Ki8751,,≥ 3 fold
"COc1cc2nccc(Oc3ccc(NC(=O)Nc4ccccc4)c(F)c3)c2cc1OC [Compound 9, 1-(4-((6,7-dimethoxyquinolin-4-yl)oxy)-2-fluorophenyl)-3-phenylurea]",fold increase in potency against PfPK6 compared to Ki8751,,≥ 3 fold
"COc1cc2nccc(Oc3ccc(N)c(F)c3)c2cc1OC [Compound 14, 4-((6,7-dimethoxyquinolin-4-yl)oxy)-2-fluoroaniline]",activity against PfPK6 in words,,complete loss of activity
same,remaining activity at 1 µM,,100%
"COc1cc2nccc(Oc3ccc(N)cc3)c2cc1OC [Compound 15, 4-((6,7-dimethoxyquinolin-4-yl)oxy)aniline]",activity against PfPK6 in words,,complete loss of activity
"O=C(Nc1ccc(F)cc1F)Nc1ccc(Oc2cnnc3ccccc23)cc1F [Compound 24, 1-(4-(cinnolin-4-yloxy)-2-fluorophenyl)-3-(2,4-difluorophenyl)urea]",activity against PfPK6 in words,,complete loss of potency
same,remaining activity at 1 µM,,100%
"O=C(Nc1ccc(F)cc1F)Nc1ccc(Oc2ccnc3[nH]ccc23)cc1F [Compound 29, 1-(4-((1H-pyrrolo[2,3-b]pyridin-4-yl)oxy)-2-fluorophenyl)-3-(2,4-difluorophenyl)urea]",fold improvement in PfPK6 potency on replacing the quinoline,compared to quinoline 3,4 fold
"COc1cc2nccc(Oc3ccc(NC(=O)Nc4cccc(C(F)(F)F)c4)c(F)c3)c2cc1OC [Compound 39, 1-(4-((6,7-dimethoxyquinolin-4-yl)oxy)-2-fluorophenyl)-3-(3-(trifluoromethyl)phenyl)urea]",IC50,,< 5 nM
"COc1cc2nccc(Oc3ccc(NC(=O)Nc4ccc(N5CCN(C)CC5)cc4)c(F)c3)c2cc1OC [Compound 59, 1-(4-((6,7-dimethoxyquinolin-4-yl)oxy)-2-fluorophenyl)-3-(4-(4-methylpiperazin-1-yl)phenyl)urea]",fold drop in activity against PfPK6 compared to 41,,30 fold
"COc1cc2nccc(Oc3ccc(NC(=O)Nc4ccc(NC5CCN(C)CC5)cc4)c(F)c3)c2cc1OC [Compound 65, 1-(4-((6,7-dimethoxyquinolin-4-yl)oxy)-2-fluorophenyl)-3-(4-((1-methylpiperidin-4-yl)amino)phenyl)urea]",fold drop in activity against PfPK6 compared to 41,,12 fold
